From patent publication EP4620949A1, “ACKR3 MODULATORS FOR CARDIOVASCULAR OR ANTIPLATELET THERAPY” (Eberhard Karls Universität Tübingen (Medizinische Fakultät), priority 2024, dated 2025) come the findings set out here.

Usually EC50 stands for the concentration at which the effect is half-maximal. Read a low EC50 as a more potent agent.

Structures are written as SMILES. “And” between values parts separate entries of the source, which are not always exact repeats. Equal values may be shown once.

The test system of one test is platelets. Description: Flow cytometry assay of platelet degranulation (P-Selectin surface expression in PRP). As to conditions: for P-Selectin expression reduction: PRP pre-incubated with compound (100 µM), then CRP-XL (1 µg/mL), % ±SEM normalized to CRP-XL-treated vehicle PRP. Type of test: cell-based, human. As for the experimental part: Platelet Degranulation Studies of Derivatives. Concurrent with the β-Arrestin recruitment potency optimization, the compounds were also tested and developed according to their functional activity. To determine the ability of a compound to modulate platelets, P-Selectin surface expression was measured. P-Selectin is a surface protein involved in cell adhesion mechanisms and can be found on activated platelets. After induction of platelet aggregation in platelet-rich plasma (PRP), treatment with the respective compound should therefore lead to a significant reduction in P-Selectin expression. […]. […]. Similarly, platelet degranulation potency was highly sensitive toward "linker"-changes (Structure C, Table 1). A distinct trend could not be registered. […]. Flow Cytometry Assay. The inhibition of platelet degranulation was determined via flow cytometry experiments. Platelets were treated with collagen-related peptide (CRP-XL, CambCol Laboratories, Cambridge, UK) and the platelets' activation state was determined (Geue, S.; Aurbach, K.; Manke, M.-C.; Manukjan, G.; Münzer, P.; Stegner, D.; Brähler, C.; Walker-Allgaier, B.; Märklin, M.; Borst, C. E.; Quintanilla-Fend, L.; Rath, D.; Geisler, T.; Salih, H. R.; Seizer, P.; Lang, F.; Nieswandt, B.; Gawaz, M.; Schulze, H.; Pleines, I.; Borst, O. Pivotal role of pdk1 in megakaryocyte cytoskeletal dynamics and polarization during platelet biogenesis. Blood 2019, 134, 1847-1858; and Malehmir, M.; Pfister, D.; Gallage, S.; Szydlowska, M.; Inverso, D.; Kotsiliti, E.; Leone, V.; Peiseler, M.; Surewaard, B. G. J.; Rath, D.; Ali, A.; Wolf, M. J.; Drescher, H.; Healy, M. E.; Dauch, D.; Kroy, D.; Krenkel, O.; Kohlhepp, M.; Engleitner, T.; Olkus, A.; Sijmonsma, T.; Volz, J.; Deppermann, C.; Stegner, D.; Helbling, P.; Nombela-Arrieta, C.; Rafiei, A.; Hinterleitner, M.; Rail, M.; Baku, F.; Borst, O.; Wilson, C. L.; Leslie, J.; O'Connor, T.; Wes-ton, C. J.; Chauhan, A.; Adams, D. H.; Sheriff, L.; Teijeiro, A.; Prinz, M.; Bogeska, R.; An-stee, N.; Bongers, M. N.; Notohamiprodjo, M.; Geisler, T.; Withers, D. J.; Ware, J.; Mann, D. A.; Augustin, H. G.; Vegiopoulos, A.; Milsom, M. D.; Rose, A. J.; Lalor, P. F.; Llovet, J. M.; Pinyol, R.; Tacke, F.; Rad, R.; Matter, M.; Djouder, N.; Kubes, P.; Knolle, P. A.; Unger, K.; Zender, L.; Nieswandt, B.; Gawaz, M.; Weber, A.; Heikenwalder, M. Platelet gpibα is a mediator and potential interventional target for nash and subsequent liver cancer. Nat. Med. 2019, 25, 641-655). Briefly, PRP was isolated from peripheral human blood collected in citrate-phosphate-dextrose solution with adenine (CPDA) and diluted with phosphate-buffered saline (PBS) (Sigma Aldrich Co., Ltd., St. Luis, Missouri, USA) supplemented with CaCl2 and MgCl2. PRP (106 platelets /sample) was preincubated with the respective compound (100 µM) for 15 min. Samples were treated with 1 µg/ml CRP-XL (CambCol Laboratories, Cambridge, UK) for 30 min at room temperature in the presence of the respective fluorochrome-conjugated antibody against P-Selectin (CD62P-FITC; Beckman Coulter, Brea, CA, USA). Subsequently, samples were fixed in 0.5% paraformaldehyde and analyzed on a FACS-Calibur flow cytometer (FACS-Caliber flow cytometer, Becton-Dickinson, East Rutherford, NJ, USA). Mean fluorescence intensity (MFI) was used as a quantitative measurement of platelet surface expression.

In another test the target is T1, human ACKR3 (Homo sapiens, UniProt P25106).
T1 construct: expressed in transfected cells; host or cells: HEK293T
The experiment in a line: ACKR3 β-Arrestin recruitment assay (NanoLuc complementation, NanoBiT) in HEK293T cells. Type of test: cell-based. As to conditions: for EC50: ACKR3, HEK293T cells, average value of three independent experiments; for Efficacy (Emax) vs CXCL12: efficacy of CXCL12 at 300 nM set as 100%, average of three independent experiments. As for the experimental part: ACKR3 β-Arrestin Recruitment Assay. […] T.; Encell, L. P.; Wood, K. V. Nanoluc complementation reporter optimized for accurate measurement of protein interactions in cells. […] B.; Reynders, N.; Vanderplasschen, A.; Ollert, M.; Bouvier, M.; Szpakowska, M.; Chevigné, A. Proadrenomedullin n-terminal 20 peptides (pamps) are agonists of the chemokine scavenger receptor ACKR3/CXCR7. […] The prepared cells were then treated with compounds at concentrations ranging from 0.3 nM to 100 µM. Induction of β-Arrestin recruitment to receptors was evaluated by measuring bioluminescence with a Mithras LB940 luminometer (Berthold Technologies).
All curves were fitted to data points generated from the mean of at least three independent experiments. Results with values of p < 0.05 were considered statistically significant.
(In general: Arrestin recruitment assays detect the binding of arrestin to an activated receptor.)

T1 sequence (P25106 whole entry): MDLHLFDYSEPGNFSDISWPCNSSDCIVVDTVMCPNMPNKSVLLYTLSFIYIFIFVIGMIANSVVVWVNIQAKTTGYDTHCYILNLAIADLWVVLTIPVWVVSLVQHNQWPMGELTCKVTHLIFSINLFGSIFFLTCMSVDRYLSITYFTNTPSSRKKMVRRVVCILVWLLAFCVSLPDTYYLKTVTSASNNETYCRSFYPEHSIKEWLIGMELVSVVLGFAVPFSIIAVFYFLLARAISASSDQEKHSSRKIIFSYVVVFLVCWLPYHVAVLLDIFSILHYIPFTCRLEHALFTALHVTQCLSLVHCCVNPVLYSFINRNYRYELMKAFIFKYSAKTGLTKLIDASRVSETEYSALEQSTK
T1 sequence (P49407 whole entry partner): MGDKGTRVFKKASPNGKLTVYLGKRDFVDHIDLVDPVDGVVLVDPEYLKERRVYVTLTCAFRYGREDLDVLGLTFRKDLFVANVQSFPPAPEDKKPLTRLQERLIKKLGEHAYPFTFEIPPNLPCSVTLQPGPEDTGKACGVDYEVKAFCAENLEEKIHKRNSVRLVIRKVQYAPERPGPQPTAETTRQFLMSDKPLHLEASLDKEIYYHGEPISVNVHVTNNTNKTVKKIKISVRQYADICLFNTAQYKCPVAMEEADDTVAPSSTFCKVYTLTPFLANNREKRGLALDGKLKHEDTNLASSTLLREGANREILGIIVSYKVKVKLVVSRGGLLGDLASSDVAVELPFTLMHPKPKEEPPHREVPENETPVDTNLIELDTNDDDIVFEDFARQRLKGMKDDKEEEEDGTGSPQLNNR

For `CN(CCCNC(=O)c1ccc(-c2ccccc2)s1)Cc1ccccc1` [Compound 1, N-(3-(benzyl(methyl)amino)propyl)-5-phenylthiophene-2-carboxamide], the P-Selectin expression reduction with platelets was 71% and 74±9%.
For the compound `CN(CCCNC(=O)c1ccc(Br)s1)Cc1ccccc1` [Compound 2, N-(3-(benzyl(methyl)amino)propyl)-5-bromothiophene-2-carboxamide], the EC50 on human ACKR3 came out at 1620 nM.
Regarding `CN(CCCNC(=O)c1cc2ccccc2s1)Cc1ccccc1` [Compound 3, N-(3-(benzyl(methyl)amino)propyl)benzo[b]thiophene-2-carboxamide], the EC50 at human ACKR3 amounted to 775 nM.
Consider `CN(CCCNC(=O)c1cc2ccccc2[nH]1)Cc1ccccc1` [Compound 4, N-(3-(benzyl(methyl)amino)propyl)-1H-indole-2-carboxamide], for which the midpoint of the response at human ACKR3, the EC50, lay at 2670 nM.
In the case of `CN(CCCNC(=O)c1cc2ccccc2o1)Cc1ccccc1` [Compound 5, N-(3-(benzyl(methyl)amino)propyl)benzofuran-2-carboxamide], in the test with platelets (P-Selectin flow cytometry, "head"-scaffold compounds), the “functional activity (in words)” value was “inactive”. For the same compound, in the test with platelets, the P-Selectin expression reduction is listed as 35%.
In the case of `CN(CCCNC(=O)CSc1ccccc1)Cc1ccccc1` [Compound 7, N-(3-(benzyl(methyl)amino)propyl)-2-(phenylthio)acetamide], at human ACKR3, the response was half-maximal at 809000 nM (EC50) and the “Efficacy (Emax) vs CXCL12” value stood at 99%.
At human ACKR3, `Cc1ccc(-c2ccc(C(=O)NCCCN(C)Cc3ccccc3)s2)cc1` [Compound 9, N-(3-(benzyl(methyl)amino)propyl)-5-(p-tolyl)thiophene-2-carboxamide] registered an EC50 of 576 nM.
Take `CN(CCCNC(=O)c1ccc(-c2ccc(C(C)(C)C)cc2)s1)Cc1ccccc1` [Compound 10, N-(3-(benzyl(methyl)amino)propyl)-5-(4-(tert-butyl)phenyl)thiophene-2-carboxamide]: the concentration giving a half-maximal response (EC50) at human ACKR3 was found to be 10200 nM.
On human ACKR3, `CN(CCCNC(=O)c1ccc(-c2ccncc2)s1)Cc1ccccc1` [Compound 13, N-(3-(benzyl(methyl)amino)propyl)-5-(pyridin-4-yl)thiophene-2-carboxamide] displayed an EC50 of 1720 nM.
Consider `CN(CCCNC(=O)c1ccc(-c2ccc(F)cc2)s1)Cc1ccccc1` [Compound 14, N-(3-(benzyl(methyl)amino)propyl)-5-(4-fluorophenyl)thiophene-2-carboxamide], for which, in the test with platelets, the P-Selectin expression reduction was found to be 87±7%.
On to `CN(CCCNC(=O)c1ccc(-c2ccccc2F)s1)Cc1ccccc1` [Compound 15, N-(3-(benzyl(methyl)amino)propyl)-5-(2-fluorophenyl)thiophene-2-carboxamide], for which, in the test on platelets, the P-Selectin expression reduction was 71±11%.
On to `CN(CCCNC(=O)c1ccc(-c2cccc(F)c2)s1)Cc1ccccc1` [Compound 16, N-(3-(benzyl(methyl)amino)propyl)-5-(3-fluorophenyl)thiophene-2-carboxamide], for which the EC50 on human ACKR3 was determined as 267 nM. Further, the “more potent than 1” value at human ACKR3 (β-Arrestin recruitment potency relative to compound 1) is reported as “up to 1.5 fold”.
`CN(CCCNC(=O)c1ccc(-c2cc(F)cc(F)c2)s1)Cc1ccccc1` [Compound 17, N-(3-(benzyl(methyl)amino)propyl)-5-(3,5-difluorophenyl)thiophene-2-carboxamide]: the P-Selectin expression reduction with platelets amounted to 81±9%.
Regarding `COc1ccc(CN(C)CCCNC(=O)c2ccc(-c3ccccc3)s2)cc1` [Compound 18, N-(3-((4-methoxybenzyl)(methyl)amino)propyl)-5-phenylthiophene-2-carboxamide], it took 930 nM to reach a half-maximal effect on human ACKR3 (EC50).
`CN(CCCNC(=O)c1ccc(-c2ccccc2)s1)Cc1ccc(Br)cc1` [Compound 19, N-(3-((4-bromobenzyl)(methyl)amino)propyl)-5-phenylthiophene-2-carboxamide]: in the test on platelets, the P-Selectin expression reduction worked out at 89±3%.
Turning to `CN(CCCNC(=O)c1ccc(-c2ccccc2)s1)Cc1ccc(F)cc1` [Compound 20, N-(3-((4-fluorobenzyl)(methyl)amino)propyl)-5-phenylthiophene-2-carboxamide], a half-maximal response on human ACKR3 (EC50) required 370 nM.
As for `CN(CCCNC(=O)c1ccc(-c2ccccc2)s1)Cc1ccccc1F` [Compound 21, N-(3-((2-fluorobenzyl)(methyl)amino)propyl)-5-phenylthiophene-2-carboxamide], the P-Selectin expression reduction in the test on platelets is 40% and 40±10%.
On the same count and under the same terms, in the case of `CN(CCCNC(=O)c1ccc(-c2ccccc2)s1)Cc1cccc(F)c1` [Compound 22, N-(3-((3-fluorobenzyl)(methyl)amino)propyl)-5-phenylthiophene-2-carboxamide] it was 66% and 66±14%.
Compound `CC(C)N(CCCNC(=O)c1ccc(-c2ccccc2)s1)Cc1ccccc1` [Compound 24, N-(3-(benzyl(isopropyl)amino)propyl)-5-phenylthiophene-2-carboxamide] showed an EC50 at human ACKR3 of 709 nM.
Regarding `O=C(NCCCN(Cc1ccccc1)C1CC1)c1ccc(-c2ccccc2)s1` [Compound 25, N-(3-(benzyl(cyclopropyl)amino)propyl)-5-phenylthiophene-2-carboxamide], the P-Selectin expression reduction with platelets was found to be 16±7%.
For `CN(CCCNC(=O)c1ccc(-c2ccccc2)s1)Cc1cccc(NC(=O)c2ccc(F)cc2)c1` [Compound 36, N-(3-((3-(4-fluorobenzamido)benzyl)(methyl)amino)propyl)-5-phenylthiophene-2-carboxamide], at human ACKR3, the EC50 is 2100 nM and 1100 nM; the “Efficacy (Emax) vs CXCL12” value is listed as 86%.
For `CC(C)(C)NC(=O)C1CCN(CCCNC(=O)c2ccc(-c3ccccc3)s2)CC1` [Compound 37, N-(tert-butyl)-1-(3-(5-phenylthiophene-2-carboxamido)propyl)piperidine-4-carboxamide], on human ACKR3, the EC50 was 3200 nM and 2500 nM; the “Efficacy (Emax) vs CXCL12” value was determined as 102%.
`CC(C)(C)OC(=O)N1CCCC(CNC(=O)c2ccc(-c3ccccc3)s2)C1` (stereo not shown) [Compound 38, tert-butyl 3-((5-phenylthiophene-2-carboxamido)methyl)piperidine-1-carboxylate] registered an EC50 on human ACKR3 of 4680 nM.
For the compound `O=C(Nc1cccc(CN2CCCN(C(=O)c3ccc(-c4ccccc4)s3)CC2)c1)c1ccc(F)cc1` [Compound 41, 4-fluoro-N-(3-((4-(5-phenylthiophene-2-carbonyl)-1,4-diazepan-1-yl)methyl)phenyl)benzamide], at human ACKR3, the concentration for a half-maximal effect (EC50) is 76000 nM and 89000 nM; the “Efficacy (Emax) vs CXCL12” value amounted to 50%.
`O=C(Nc1cccc(CNC(=O)c2ccc(-c3ccccc3)s2)c1)c1ccc(F)cc1` [Compound 43, N-(3-(4-fluorobenzamido)benzyl)-5-phenylthiophene-2-carboxamide] yielded an EC50 on human ACKR3 of 3350 nM.
On to `CN1CCCC1CCNC(=O)c1csc(-c2ccccc2)n1` (stereo not shown) [Compound 44, N-(2-(1-methylpyrrolidin-2-yl)ethyl)-2-phenylthiazole-4-carboxamide], for which a half-maximal response at human ACKR3 (EC50) required 3000 nM.
As for `O=C(NCc1ccccc1)C1CCN(Cc2csc(-c3ccccc3)n2)CC1` [Compound 48, N-benzyl-1-((2-phenylthiazol-4-yl)methyl)piperidine-4-carboxamide], at human ACKR3, the EC50 is 1500 nM and 1100 nM; the “Efficacy (Emax) vs CXCL12” value was 110%.
